Test system: human microvascular endothelial cells
Assay: in vitro transwell permeability assay (streptavidin-HRP leakage) with DENV NS1
Type: cell-based
Details: hyaluronidase 0.5 unit/mL to 50 units/mL added with DENV NS1 3 μg/ml for 6 hours; FIG. 6
Source text: Vascular leakage is an important feature in several diseases, such as septic shock, viral hemorrhagic fever, cancer metastasis and ischemia-reperfusion injuries. Thus, an in vitro endothelial permeability assay will provide insight into the establishment or progression of such diseases. The transwell permeability assays directly detect the penetration of a specific molecule, which can be detected by a spectrometer-based absorbance reader.
The permeability of human microvascular endothelial cells treated or not with DENV NS1 (3 μg/ml, Cat. No. ENZ-PRT105-0100, Enzo Life Sciences, Inc., NY, U.S.A.), was measured by an in vitro transwell permeability assay that mimics human endothelium in vivo (referring to http://www.bio-protocol.org/e2273). In brief, human microvascular endothelial cells (2×10^5) were grown in a 24-Transwell® (pore size: 0.4 μm, Cat. No. 3414; Corning, Kennebunk, Me., U.S.A.) for 5 days until a confluent monolayer was formed. […] Twenty microliters of medium, from each lower chamber, was transferred to a 96-well plate and analyzed for HRP activity by adding 100 μL 3,3′,5,5′-tetramethylbenzidine (TMB) substrate (Sigma-Aldrich, Cat. No. T4444, St. Louis, Mo., U.S.A.). Color development was detected by an EnSpire Multimode Reader (PerkinElmer, Upplands Väsby, Sweden) at 450 nm.

In the case of hyaluronidase, the “DENV NS1-induced endothelial hyper-permeability” value is reported as “reverse the DENV NS1-induced endothelial hyper-permeability significantly”.

Reference: US11730811B2, “Method for treating subject suffering from flavivirus infection” (priority 2017, dated 2023)
